Experimental data: the supplement of paper PMC6045584
± gives the standard deviation of the averaged measurements.

Compound: C#Cc1cccc(Nc2ncnc3cc(OCCOC)c(OCCOC)cc23)c1 [ERLOTINIB]
Experiment: surviving fraction relative to DMSO-only wells; higher = less growth inhibition
Conditions: 0.5 nM; exposure time: 5 days
In short: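 Tumour cell lines in log phase were plated in 384-well plates at 250–500 cells per well, then, after 24 hours, exposed continuously for five days to inhibitors at 0.5, 1, 5, 10, 50, 100, 500 and 1000 nM. Viability came from CellTiter-Glo luminescence, and surviving fraction is that signal normalised to the median of DMSO-only wells. Plates were read after 10 minutes at room temperature, and each line, screened three times, was kept only when replicate Pearson r was >0.7 and median Z' was >0.3.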

MDAMB453 BREAST and MDAMB468 BREAST are within error of each other in surviving fraction: 1.11 ± 0.065 for the first, 1.06 ± 0.052 for the second.

MFM223 BREAST and MHM BONE are within error of each other in surviving fraction: 1.44 ± 0.48 for the first, 1.02 ± 0.036 for the second.

NCIH441 LUNG and NOS1 BONE are within error of each other in surviving fraction: 1.2 ± 0.086 for the first, 1.22 ± 0.035 for the second.

NY BONE and OS25HAL BONE are within error of each other in surviving fraction: 1.01 ± 0.019 for the first, 0.997 ± 0.016 for the second.

OSHN BONE and PCI30 HEADNECK are within error of each other in surviving fraction: 1.07 ± 0.029 for the first, 1.05 ± 0.12 for the second.

RDES SOFT TISSUE and S68 BREAST are within error of each other in surviving fraction: 1.21 ± 0.057 for the first, 1.05 ± 0.32 for the second.

SAOS2 BONE and SCC47 HEADNECK are within error of each other in surviving fraction: 1.22 ± 0.066 for the first, 1.13 ± 0.079 for the second.

SCC90 HEADNECK and SG27 HEADNECK are within error of each other in surviving fraction: 1.1 ± 0.091 for the first, 1 ± 0.036 for the second.

SG28 HEADNECK and SG31 HEADNECK are within error of each other in surviving fraction: 1.2 ± 0.12 for the first, 1.29 ± 0.38 for the second.

SG32 HEADNECK and SG43 HEADNECK are within error of each other in surviving fraction: 1.14 ± 0.11 for the first, 1.06 ± 0.2 for the second.

Going from SIHA CERVIX to SJSA1 BONE, the surviving fraction rises from 1.1 ± 0.05 to 1.69 ± 0.11.

SKBR3 BREAST and SNU475 LIVER are within error of each other in surviving fraction: 1.11 ± 0.13 for the first, 1.01 ± 0.03 for the second.

SUM44 BREAST and SUM149 BREAST are within error of each other in surviving fraction: 1.31 ± 0.45 for the first, 1.1 ± 0.12 for the second.

SUM149.B1*.S BREAST and SUM159 BREAST are the same in surviving fraction: 1.11 ± 0.071 for the first, 1.11 ± 0.039 for the second.

Compared with SYO1 SYNOVIAL, T47D BREAST is higher in surviving fraction: 1.02 ± 0.016 for the first, 1.13 ± 0.059 for the second.

Going from U2OS BONE to VCAP PROSTATE, the surviving fraction falls from 1.06 ± 0.016 to 1 ± 0.042.

Compared with VP229 BREAST, YAMATO SYNOVIAL is higher in surviving fraction: 1.05 ± 0.087 for the first, 1.28 ± 0.12 for the second.

In the case of ZR751 BREAST, the surviving fraction is reported as 1.01 ± 0.04.

Same assay, conditions: 1 nM; exposure time: 5 days

MDAMB453 BREAST and MDAMB468 BREAST are within error of each other in surviving fraction: 1.05 ± 0.029 for the first, 0.995 ± 0.038 for the second.

MFM223 BREAST and MG63 BONE are within error of each other in surviving fraction: 1.5 ± 0.64 for the first, 1.08 ± 0.041 for the second.

MHM BONE and NCIH441 LUNG are within error of each other in surviving fraction: 1.03 ± 0.035 for the first, 1.16 ± 0.14 for the second.

Compared with NY BONE, OS25HAL BONE is higher in surviving fraction: 0.963 ± 0.029 for the first, 1.04 ± 0.048 for the second.

Going from OSHN BONE to RDES SOFT TISSUE, the surviving fraction rises from 1.1 ± 0.016 to 1.28 ± 0.14.

S68 BREAST and SAOS2 BONE are within error of each other in surviving fraction: 1.07 ± 0.37 for the first, 1.2 ± 0.044 for the second.

Going from SCC36 HEADNECK to SCC47 HEADNECK, the surviving fraction rises from 0.929 ± 0.089 to 1.11 ± 0.015.

Compared with SCC90 HEADNECK, SG27 HEADNECK is lower in surviving fraction: 1.1 ± 0.011 for the first, 0.979 ± 0.051 for the second.

Compared with SG28 HEADNECK, SG31 HEADNECK is higher in surviving fraction: 1.1 ± 0.021 for the first, 1.29 ± 0.13 for the second.

SG32 HEADNECK and SG43 HEADNECK are within error of each other in surviving fraction: 1.11 ± 0.092 for the first, 0.978 ± 0.049 for the second.

Compared with SIHA CERVIX, SJSA1 BONE is lower in surviving fraction: 1.075 ± 0.0096 for the first, 0.267 ± 0.022 for the second.

SKBR3 BREAST and SUM44 BREAST are within error of each other in surviving fraction: 1.1 ± 0.15 for the first, 1.19 ± 0.29 for the second.

SUM149 BREAST and SUM149.B1*.S BREAST are within error of each other in surviving fraction: 1.11 ± 0.12 for the first, 1.12 ± 0.021 for the second.

SUM159 BREAST and SYO1 SYNOVIAL are within error of each other in surviving fraction: 1.1 ± 0.033 for the first, 1.04 ± 0.034 for the second.

T47D BREAST and VCAP PROSTATE are within error of each other in surviving fraction: 1.08 ± 0.052 for the first, 0.988 ± 0.16 for the second.

VP229 BREAST and YAMATO SYNOVIAL are within error of each other in surviving fraction: 1.21 ± 0.12 for the first, 1.29 ± 0.088 for the second.

For ZR751 BREAST, the surviving fraction was 1.29 ± 0.17.

Same assay, conditions: 5 nM; exposure time: 5 days

MDAMB453 BREAST and MDAMB468 BREAST are within error of each other in surviving fraction: 1.11 ± 0.057 for the first, 1.14 ± 0.072 for the second.

MFM223 BREAST and MG63 BONE are within error of each other in surviving fraction: 1.49 ± 0.59 for the first, 1.12 ± 0.014 for the second.

NCIH441 LUNG and NOS1 BONE are within error of each other in surviving fraction: 1.09 ± 0.083 for the first, 1.24 ± 0.15 for the second.

First: OS25HAL BONE
Second: OSHN BONE
The surviving fraction of the first is lower: 1.02 ± 0.024 for the first, 1.1 ± 0.026 for the second.

PCI30 HEADNECK and RDES SOFT TISSUE are the same in surviving fraction: 1.12 ± 0.066 for the first, 1.12 ± 0.18 for the second.

Compared with S68 BREAST, SAOS2 BONE is higher in surviving fraction: 0.808 ± 0.13 for the first, 1.18 ± 0.095 for the second.

First: SCC36 HEADNECK
Second: SCC47 HEADNECK
The surviving fraction of the first is lower: 1.06 ± 0.032 for the first, 1.231 ± 0.0078 for the second.

SCC90 HEADNECK and SG27 HEADNECK are within error of each other in surviving fraction: 1.13 ± 0.038 for the first, 1.08 ± 0.062 for the second.

SG28 HEADNECK and SG31 HEADNECK are within error of each other in surviving fraction: 1.13 ± 0.07 for the first, 1.03 ± 0.11 for the second.

SG32 HEADNECK and SG43 HEADNECK are within error of each other in surviving fraction: 1.1 ± 0.29 for the first, 0.882 ± 0.18 for the second.

Compared with SIHA CERVIX, SJSA1 BONE is higher in surviving fraction: 1.12 ± 0.074 for the first, 1.55 ± 0.035 for the second.

SKBR3 BREAST and SNU475 LIVER are within error of each other in surviving fraction: 1.07 ± 0.15 for the first, 0.974 ± 0.064 for the second.

SUM44 BREAST and SUM149 BREAST are within error of each other in surviving fraction: 1.28 ± 0.4 for the first, 1.01 ± 0.13 for the second.

SUM149.B1*.S BREAST and SUM159 BREAST are the same in surviving fraction: 1.09 ± 0.065 for the first, 1.09 ± 0.023 for the second.

SYO1 SYNOVIAL and T47D BREAST are within error of each other in surviving fraction: 1.03 ± 0.017 for the first, 1.13 ± 0.084 for the second.

VCAP PROSTATE and VP229 BREAST are the same in surviving fraction: 1.17 ± 0.089 for the first, 1.17 ± 0.14 for the second.

Going from YAMATO SYNOVIAL to ZR751 BREAST, the surviving fraction falls from 1.43 ± 0.079 to 1.14 ± 0.14.

Same assay, conditions: 10 nM; exposure time: 5 days

MDAMB453 BREAST and MDAMB468 BREAST are within error of each other in surviving fraction: 1.088 ± 0.0092 for the first, 1.05 ± 0.035 for the second.

MFM223 BREAST and MG63 BONE are within error of each other in surviving fraction: 1.48 ± 0.48 for the first, 1.1 ± 0.019 for the second.

NCIH441 LUNG and NOS1 BONE are within error of each other in surviving fraction: 1.08 ± 0.12 for the first, 1.18 ± 0.075 for the second.

NY BONE and OSHN BONE are within error of each other in surviving fraction: 1.05 ± 0.037 for the first, 1.07 ± 0.029 for the second.

First: PCI30 HEADNECK
Second: RDES SOFT TISSUE
The surviving fraction of the first is lower: 1.07 ± 0.078 for the first, 1.27 ± 0.015 for the second.

Going from S68 BREAST to SAOS2 BONE, the surviving fraction rises from 1.15 ± 0.036 to 1.24 ± 0.035.

SCC36 HEADNECK and SCC47 HEADNECK are within error of each other in surviving fraction: 1.07 ± 0.057 for the first, 1.17 ± 0.092 for the second.

SCC90 HEADNECK and SG27 HEADNECK are within error of each other in surviving fraction: 1 ± 0.036 for the first, 1.06 ± 0.16 for the second.

SG31 HEADNECK and SG32 HEADNECK are within error of each other in surviving fraction: 0.863 ± 0.092 for the first, 1.03 ± 0.18 for the second.

Compared with SG43 HEADNECK, SJSA1 BONE is lower in surviving fraction: 0.734 ± 0.17 for the first, 0.189 ± 0.0056 for the second.

Going from SKBR3 BREAST to SNU475 LIVER, the surviving fraction falls from 1.15 ± 0.1 to 0.982 ± 0.044.

SUM44 BREAST and SUM149 BREAST are within error of each other in surviving fraction: 1.21 ± 0.26 for the first, 0.966 ± 0.082 for the second.

SUM149.B1*.S BREAST and SUM159 BREAST are within error of each other in surviving fraction: 1.09 ± 0.017 for the first, 1.07 ± 0.024 for the second.

Compared with SYO1 SYNOVIAL, T47D BREAST is higher in surviving fraction: 0.986 ± 0.067 for the first, 1.09 ± 0.028 for the second.

VCAP PROSTATE and VP229 BREAST are within error of each other in surviving fraction: 1.15 ± 0.057 for the first, 1.1 ± 0.086 for the second.

First: YAMATO SYNOVIAL
Second: ZR751 BREAST
The surviving fraction of the first is higher: 1.26 ± 0.036 for the first, 1.05 ± 0.087 for the second.

Same assay, conditions: 50 nM; exposure time: 5 days

MDAMB453 BREAST and MDAMB468 BREAST are within error of each other in surviving fraction: 1.09 ± 0.065 for the first, 1.15 ± 0.12 for the second.

MFM223 BREAST and MG63 BONE are within error of each other in surviving fraction: 1.16 ± 0.13 for the first, 1.14 ± 0.045 for the second.

MHM BONE and NCIH441 LUNG are within error of each other in surviving fraction: 1.04 ± 0.016 for the first, 1.08 ± 0.067 for the second.

Test System NOS1 BONE has a surviving fraction of 1.33 ± 0.045.
